Reference: patent US3987189A, “Anti-inflammatory composition and method containing cyclic 2-furfural-acetals” (Henkel & Cie G.m.b.H., priority 1973, dated 1976)
Where two headings read alike, the source gives them in different places.

Assays:
[1] = Orienting toxicity test, LD 50; conditions: in vivo
Experimental: In the following experiments listed below the cyclic 2-furfural-acetals to be used according to the invention were tested for their anti-inflammatoryproperties. First an orienting experiment was carried out to determine their toxicity, in order to be able to determine the test dosages for the further experiments.

[2] = test system: carrageenin induced edema of the rats paw; assay: Rat's paw test with carrageenin induced edema (amputation method); assay type: in vivo; conditions: 30 minutes before carrageenin, paws weighed 3 hours after carrageenin, read-out: Rat's paw test with carrageenin induced edema, checking (% inhibition)
Experimental: As a determination of the suitability of the compounds for preventing the inflammation caused by sunburn, a variation of the rats paw test was used, namely the so-called amputation method was used, which is described by C. H. Winter in the Journal of Pharmacology and Experimental Therapeutics 141, p.369 (1963). In the experiments, Carrageenin is used as the substance causing inflammation.
While only the Carrageenin solution was administered to the control animals, the test animals were given the different test substances by injection or by administration per os in the amount given in Table I below, 30 minutes before its injection with the Carrageenin solution. The test animals were killed 3 hours after the injection of the carrageenin solution causing the inflammation, and the weight of the paws was determined. The inhibiting of the development of the edema of the rats paws after the subplantar injection of the compound checking inflammation was used as an index of the degree of activity and was expressed in % inhibition.
On the basis of general practice, the results of the rats paw test serve as a base for the evaluation of a compound as a sunburn control agent.

[3] = UV-spectrum, absorption maxima; assay type: physicochemical
Excerpt: In addition, the absorption maxima of the test substances in the ultraviolet region are given in the following Table I. Since with some of the test substances the absorption maxima lie conveniently in the ultraviolet region producing erythema, which extends from 280 to 320 mμ these, besides their inflammation-preventing action as sunburn control substances, show themselves simultaneously as useful means for protection from the sun.

| SMILES | LD50 [1] [mg/kg] | inhibition in vivo at 500 mg/kg ([2]; po, 500 mgm/kg p.o.) [%] | UV-spectrum λ-max [3] [mμ] | UV-spectrum logε at λ-max [3] | other results |
| --- | --- | --- | --- | --- | --- |
| O=[N+]([O-])c1ccc(C2OCCO2)o1 [Compound A, 2-(5'-Nitrofuryl-2')-1,3-dioxolane] | 810 | 16.2 | 302 | 4.02 |  |
| O=[N+]([O-])c1ccc(C2OCCCCO2)o1 [Compound B, 2-(5'-nitrofuryl-2')-1,3-dioxepane] | 1750 | 12.3 |  |  |  |
| CCCC1(C)COC(c2ccc([N+](=O)[O-])o2)OC1 (centres unmarked) [Compound C, 2-(5'-nitrofuryl-2')-5-methyl-5-propyl-1,3-dioxane] | 300 |  | 302 | 3.98 | inhibition in vivo at 250 mg/kg ([2]; po, 250 mgm/kg p.o.): 16.5% |
| CC1(C)OC(c2ccc([N+](=O)[O-])o2)OC1(C)C [Compound D, 2-(5'-nitrofuryl-2')-4,4,5,5-tetramethyl-1,3-dioxolane] | 810 | 16.5 | 303 | 4.01 |  |
| O=[N+]([O-])c1ccc(C2OC3CCCCC3O2)o1 (centres unmarked) [Compound E, 2-(5'-nitrofuryl-2')-4,5-tetramethylene-1,3-dioxolane] | 1000 | 17.7 | 305 | 4.01 |  |
| CC(C)C1OC(c2ccco2)OCC1(C)C (centres unmarked) [Compound F, 2-(furyl-2')-4-isopropyl-5,5-dimethyl-1,3-dioxane] | 300 |  | 300 | 2.35 | inhibition in vivo at 250 mg/kg ([2]; po, 250 mgm/kg p.o.): 48.4% |
| CC1OC(c2ccco2)OC1C (centres unmarked) [Compound G, 2-(furyl-2')-4,5-dimethyl-1,3-dioxolane] | 300 |  | 300 | 2.13 | inhibition in vivo at 250 mg/kg ([2]; po, 250 mgm/kg p.o.): 14.5% |
| Cc1ccc(C2OCC(C)(C)C(C(C)C)O2)o1 (centres unmarked) [Compound H, 2-(5'-methylfuryl-2')-4-isopropyl-5,5-dimethyl-1,3-dioxane] | 1000 |  | 300 | 2.08 | inhibition in vivo at 1000 mg/kg ([2]; po, 1000 mgm/kg p.o.): 50% |
| Cc1ccc(C2OC(C)C(C)O2)o1 (centres unmarked) [Compound J, 2-(5'-methylfuryl-2')-4,5-dimethyl-1,3-dioxolane] | 1000 |  | 300 | 1.96 | inhibition in vivo at 1000 mg/kg ([2]; po, 1000 mgm/kg p.o.): 48.4% |
| CC1OC(c2ccc([N+](=O)[O-])o2)OC(C)C1C (centres unmarked) [Compound K, 2-(5'-Nitrofuryl-2')-4,5,6-trimethyl-1,3-dioxane] | 690 |  | 303 | 3.76 | inhibition in vivo at 250 mg/kg ([2]; po, 250 mgm/kg p.o.): 30.8% |
| CC1CC(C)(C)OC(c2ccc([N+](=O)[O-])o2)O1 (centres unmarked) [Compound L, 2-(5'-nitrofuryl-2')-4,4,6-trimethyl-1,3-dioxane] | 1130 | 21.9 | 304 | 4.01 |  |
| CCCCCCCCCCCCC1COC(c2ccc([N+](=O)[O-])o2)O1 (centres unmarked) [Compound M, 2-(5'-nitrofuryl-2')-4-dodecyl-1,3-dioxolane] | 1000 |  |  |  | inhibition in vivo at 1000 mg/kg ([2]; ip, 1000 mgm/kg i.p.): 18.3% |
| CCCCCCCCCCCCCCC1COC(c2ccc([N+](=O)[O-])o2)O1 (centres unmarked) [Compound N, 2-(5'-nitrofuryl-2')-4-tetradecyl-1,3-dioxolane] | 1000 |  |  |  | inhibition in vivo at 1000 mg/kg ([2]; ip, 1000 mgm/kg i.p.): 10.5% |
| CCCCCCCCCCCCCCCCC1COC(c2ccc([N+](=O)[O-])o2)O1 (centres unmarked) [Compound O, 2-(5'-nitrofuryl-2')-4-hexadecyl-1,3-dioxolane] | 2500 |  |  |  | inhibition in vivo at 250 mg/kg ([2]; ip, 250 mgm/kg i.p.): 29.6% |
| CC(C)C1OC(c2ccc([N+](=O)[O-])o2)OCC1(C)C (centres unmarked) [Compound Q, 2-(5'-nitrofuryl-2')-4-isopropyl-5,5-dimethyl-1,3-dioxane] | 1750 |  | 301 | 4.07 | inhibition in vivo at 750 mg/kg ([2]; po, 750 mgm/kg p.o.): 34.1% |
| CC1COC(c2ccc([N+](=O)[O-])o2)O1 (centres unmarked) [Compound R, 2-(5'-nitrofuryl-2')-4-methyl-1,3-dioxolane] | 750 |  | 303 | 3.84 | inhibition in vivo at 50 mg/kg ([2]; ip, 50 mgm/kg i.p.): 36.6% |
| CCCCC1COC(c2ccc([N+](=O)[O-])o2)O1 (centres unmarked) [Compound S, 2-(5'-nitrofuryl-2')-4-n-butyl-1,3-dioxolane] | 810 |  |  |  | inhibition in vivo at 500 mg/kg ([2]; ip, 500 mgm/kg i.p.): 10.6% |
| CCCCCCC1COC(c2ccc([N+](=O)[O-])o2)O1 (centres unmarked) [Compound T, 2-(5'-nitrofuryl-2')-4-n-hexyl-1,3-dioxolane] | 1000 |  |  |  | inhibition in vivo at 1000 mg/kg ([2]; po, 1000 mgm/kg p.o.): 12.8% |
| CCCCCCCCC1COC(c2ccc([N+](=O)[O-])o2)O1 (centres unmarked) [Compound U, 2-(5'-nitrofuryl-2')-4-n-octyl-1,3-dioxolane] | 5000 |  |  |  | inhibition in vivo at 250 mg/kg ([2]; ip, 250 mgm/kg i.p.): 17% |
| CCCCCCCCCCC1COC(c2ccc([N+](=O)[O-])o2)O1 (centres unmarked) [Compound V, 2-(5'-nitrofuryl-2')-4-n-decyl-1,3-dioxolane] | 1000 |  |  |  | inhibition in vivo at 1000 mg/kg ([2]; po, 1000 mgm/kg p.o.): 18.3% |
| O=[N+]([O-])c1ccc(C2OCCCO2)o1 [Compound W, 2-(5'-nitrofuryl-2')-1,3-dioxane] | 750 | 16.9 | 303 | 3.79 |  |
| CC1CCOC(c2ccc([N+](=O)[O-])o2)O1 (centres unmarked) [Compound X, 2-(5'-nitrofuryl-2')-4-methyl-1,3-dioxane] | 750 | 12.1 | 303 | 3.87 |  |
| c1coc(C2OC3CCCCC3O2)c1 (centres unmarked) [Compound Y, 2-(Furyl-2')-4,5-tetramethylene-1,3-dioxolane] | 300 |  |  |  | inhibition in vivo at 250 mg/kg ([2]; po, 250 mgm/kg p.o.): 32.3% |
